Measured values reported in patent US10519162B2, “6,7-dihydropyrazolo[1,5-α]pyrazin-4(5H)-one compounds and their use as negative allosteric modulators of mGluR2 receptors” (Janssen Pharmaceutica NV, priority 2014, dated 2019).
Where two headings read alike, the source gives them in different places.

Columns and labels:
[1] = molecular target: T1, human mGlu2 receptor (Homo sapiens, UniProt Q14416); test: [35S]GTPγS binding assay (mGluR2 negative allosteric modulation, glutamate ~EC80 60 μM); assay type: biochemical; conditions: for Emax: read-out: GTPγS-hmGluR2 anGT Emax; for IC50: glutamate ~EC80 (60 μM), pIC50 = −log IC50 (M)
T1 construct: expressed in transfected cells; host or cells: CHO cells
T1 sequence (Q14416 19-872): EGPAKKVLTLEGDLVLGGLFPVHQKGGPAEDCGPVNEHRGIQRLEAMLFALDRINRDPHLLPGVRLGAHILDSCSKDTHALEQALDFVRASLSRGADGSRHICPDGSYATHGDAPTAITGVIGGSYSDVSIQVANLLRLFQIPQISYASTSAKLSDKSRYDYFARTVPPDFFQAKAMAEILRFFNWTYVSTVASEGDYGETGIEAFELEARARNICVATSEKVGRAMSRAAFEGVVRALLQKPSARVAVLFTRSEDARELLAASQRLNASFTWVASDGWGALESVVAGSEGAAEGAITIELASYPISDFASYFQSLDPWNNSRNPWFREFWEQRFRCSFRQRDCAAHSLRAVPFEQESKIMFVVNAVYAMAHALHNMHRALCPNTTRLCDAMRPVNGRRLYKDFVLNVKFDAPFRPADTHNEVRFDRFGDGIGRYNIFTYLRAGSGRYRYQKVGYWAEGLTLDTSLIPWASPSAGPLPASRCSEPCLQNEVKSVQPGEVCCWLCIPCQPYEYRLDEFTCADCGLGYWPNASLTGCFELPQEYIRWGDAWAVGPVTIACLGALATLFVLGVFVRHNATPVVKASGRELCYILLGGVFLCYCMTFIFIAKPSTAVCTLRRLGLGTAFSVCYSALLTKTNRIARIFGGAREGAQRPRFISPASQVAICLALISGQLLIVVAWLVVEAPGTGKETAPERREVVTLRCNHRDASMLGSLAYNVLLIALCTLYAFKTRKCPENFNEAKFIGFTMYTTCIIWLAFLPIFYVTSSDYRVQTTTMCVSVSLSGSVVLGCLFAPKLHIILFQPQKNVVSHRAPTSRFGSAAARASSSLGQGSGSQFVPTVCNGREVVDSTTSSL
Experimental: 1) [^35S]GTPγS Binding Assay
[^35S]GTPγS Binding Assay
Total reaction volume was 200 μl. […] Membrane-bound radioactivity was counted in a Topcount.

[2] = maximal % inhibition relative to the control glutamate response (EC80 glutamate)
[3] = membranes from CHO cells transfected with human mGlu2 receptor, read-out: GTPγS-hmGluR2 anGT pIC50 (converted)
[4] = GTPγS-hmGluR2 anGT pIC50, membranes from CHO cells transfected with human mGlu2 receptor

Compound	melting point [°C]	Emax [1, 2] [%]	IC50 [1, 3] [M]	GTPγS-hmGluR2 anGT Emax [1, 2] [%]	IC50 [1, 4] [M]	Emax [1] [%]
C[C@H]1CN(c2ccc(C(F)(F)F)cc2)C(=O)c2c(NC(=O)c3cn[nH]c3)cnn21 [Co. No. 79]	240.1	107	8.51e-08			
C[C@H]1CN(c2ccc(C(F)(F)F)cc2)C(=O)c2c(NC(=O)c3ncc[nH]3)cnn21 [Co. No. 80]	275.03	111	1e-07			
Cc1nc(C(=O)Nc2cnn3c2C(=O)N(c2ccc(C(F)(F)F)cc2)C[C@@H]3C)co1 [Co. No. 81]	189.92	103	1.02e-07			
C[C@H]1CN(c2ccc(C(F)(F)F)cc2)C(=O)c2c(NC(=O)c3ccc(C(N)=O)cn3)cnn21 [Co. No. 82, N2-[(7S)-7-Methyl-4-oxo-5-[4-(trifluoromethyl)phenyl]-6,7-dihydropyrazolo[1,5-a]pyrazin-3-yl]pyridine-2,5-dicarboxamide]	278.58	104	1.12e-07			
C[C@H]1CN(c2ccc(C(F)(F)F)cc2)C(=O)c2c(NC(=O)c3c[nH]cn3)cnn21 [Co. No. 83]	277.42	101	1.12e-07			
C[C@H]1CN(c2ccc(C(F)(F)F)cc2)C(=O)c2c(NC(=O)c3ccc(C#N)cn3)cnn21 [Co. No. 85]	291.58	106	1.66e-07			
C[C@H]1CN(c2ccc(C(F)(F)F)cc2)C(=O)c2c(NC(=O)c3cnn(C)c3)cnn21 [Co. No. 86]	167.59	103	1.91e-07			
C[C@H]1CN(c2ccc(C(F)(F)F)cc2)C(=O)c2c(NC(=O)Cc3ccccc3)cnn21 [Co. No. 87]	135.05	103	2e-07			
Cc1ncc(C(=O)Nc2cnn3c2C(=O)N(c2ccc(C(F)(F)F)cc2)C[C@@H]3C)cn1 [Co. No. 88]	231.1	99	2.24e-07			
Cc1cc(C(=O)Nc2cnn3c2C(=O)N(c2ccc(C(F)(F)F)cc2)C[C@@H]3C)[nH]n1 [Co. No. 89]	285.92	100	2.45e-07			
C[C@H]1CN(c2ccc(C(F)(F)F)cc2)C(=O)c2c(NC(=O)c3cncn3C)cnn21 [Co. No. 91]	162.27	101	3.47e-07			
C[C@H]1CN(c2ccc(C(F)(F)F)cc2)C(=O)c2c(NC(=O)c3c[nH]c(N)n3)cnn21 [Co. No. 94, 2-Amino-N-[(7S)-7-methyl-4-oxo-5-[4-(trifluoromethyl)phenyl]-6,7-dihydropyrazolo[1,5-a]pyrazin-3-yl]-1H-imidazole-4-carboxamide]	272.72	98	4.57e-07			
C[C@H]1CN(c2ccccc2)C(=O)c2c(NC(=O)c3ccnc(N)c3)cnn21 [Co. No. 97]	153.01	111	3.16e-07			
COc1cc(N2C[C@H](C)n3ncc(NC(=O)c4cc(C)nc(C)c4)c3C2=O)ccc1C(F)(F)F [Co. No. 125]	226.99	104	4.07e-09			
Cc1cc(C(=O)Nc2cnn3c2C(=O)N(c2ccc(C(F)(F)F)c(F)c2)C[C@@H]3C)cc(C)n1 [Co. No. 129]	148.36	108	5.62e-09			
Cc1cc(C(=O)Nc2cnn3c2C(=O)N(c2ccc(C(F)(F)F)c(F)c2)C[C@@H]3C)ccn1 [Co. No. 130]	134.44	107	7.41e-09			
Cc1cncc(C(=O)Nc2cnn3c2C(=O)N(c2ccc(C(F)(F)F)c(Cl)c2)C[C@@H]3C)c1C [Co. No. 133]	172.8	109	3.31e-09			
Cc1c(F)cncc1C(=O)Nc1cnn2c1C(=O)N(c1ccc(C(F)(F)F)c(Cl)c1)C[C@@H]2C [Co. No. 135]	97.9	108	2.29e-09			
Cc1c(F)cncc1C(=O)Nc1cnn2c1C(=O)N(c1ccc(C(F)(F)F)cc1)C[C@@H]2C [Co. No. 136]	89.55	106	2.45e-08			
COc1cncc(C(=O)Nc2cnn3c2C(=O)N(c2ccc(Cl)cc2)C[C@@H]3C)c1 [Co. No. 137]	153.4	106	1.74e-08			

Compound	melting point [°C]	Emax [1, 2] [%]	IC50 [1, 3] [M]	GTPγS-hmGluR2 anGT Emax [1, 2] [%]	IC50 [1, 4] [M]	Emax [1] [%]
COCc1cncc(C(=O)Nc2cnn3c2C(=O)N(c2ccc(C(F)(F)F)cc2)C[C@@H]3C)c1 [Co. No. 138]	149.93	106	2.95e-08			
COCc1cncc(C(=O)Nc2cnn3c2C(=O)N(c2ccc(C(F)(F)F)c(Cl)c2)C[C@@H]3C)c1 [Co. No. 139]	170.75	108	3.02e-09			
Cc1cc(C(=O)Nc2cnn3c2C(=O)N(c2ccc(C(F)(F)F)c(Cl)c2)C[C@@H]3C)cc(Cl)n1 [Co. No. 142]	124.01	109	2.45e-09			
C[C@H]1CN(c2ccc(C(F)(F)F)cc2)C(=O)c2c(NC(=O)c3cccc(O)c3)cnn21 [Co. No. 144]	240.46	115	2.04e-09			
Cc1nccc(C(=O)Nc2cnn3c2C(=O)N(c2ccc(C(F)(F)F)cc2)C[C@@H]3C)c1C [Co. No. 156]	182.69		2.4e-08	113		
Cc1cc(C(=O)Nc2cnn3c2C(=O)N(c2ccc(C(F)(F)F)c(Cl)c2)C[C@@H]3C)c(C)cn1 [Co. No. 158]	130.79	112	4.07e-09			
CC(=O)Nc1ccc(C(=O)Nc2cnn3c2C(=O)N(c2ccc(C(F)(F)F)cc2)C[C@@H]3C)cn1 [Co. No. 159, 6-acetamido-N-[(7S)-7-methyl-4-oxo-5-[4-(trifluoromethyl)phenyl]-6,7-dihydropyrazolo[1,5-a]pyrazin-3-yl]pyridine-3-carboxamide]	265	106	6.03e-09			
CC(=O)Nc1cnn2c1C(=O)N(c1ccc(C(F)(F)F)cc1)C[C@@H]2C [Co. No. 160, N-[(7S)-7-methyl-4-oxo-5-[4-(trifluoromethyl)phenyl]-6,7-dihydropyrazolo[1,5-a]pyrazin-3-yl]acetamide]	142.82	101	6.31e-07			
Cc1cc(C(=O)Nc2cnn3c2C(=O)N(c2ccc(C(F)(F)F)cc2)C[C@@H]3C)cc(N)n1 [Co. No. 162]	196.39	107	2.75e-09			
Cc1cc(N)ncc1C(=O)Nc1cnn2c1C(=O)N(c1ccc(C(F)(F)F)cc1)C[C@@H]2C [Co. No. 163, 6-Amino-4-methyl-N-[(7S)-7-methyl-4-oxo-5-[4-(trifluoromethyl)phenyl]-6,7-dihydropyrazolo[1,5-a]pyrazin-3-yl]pyridine-3-carboxamide]	226.06	106	2.57e-09			
Cc1cc(N)ncc1C(=O)Nc1cnn2c1C(=O)N(c1ccc(C(F)(F)F)c(Cl)c1)C[C@@H]2C [Co. No. 164]	233.32	108	1.35e-09			
Cc1cc(C(=O)Nc2cnn3c2C(=O)N(c2ccc(C(F)(F)F)c(Cl)c2)C[C@@H]3C)cc(N)n1 [Co. No. 174]	192.47	106	1.66e-09			
Cc1cc(C(=O)Nc2cnn3c2C(=O)N(c2ccc(C(F)(F)F)cc2)C[C@@H]3C)nc(N)n1 [Co. No. 180]	265.47	107	4.37e-08			
C[C@H]1CN(c2ccc(C(F)(F)F)cc2)C(=O)c2c(NC(=O)C3CCOCC3)cnn21 [Co. No. 186]	142.94	106	7.08e-07			
C[C@@H]1CN(c2ccc(C(F)(F)F)cc2)C(=O)c2c(NC(=O)c3cccnc3)cnn21 [Co. No. 188]	152.2	105	2.45e-07			
O=C(Nc1cnn2c1C(=O)N(c1ccc(C(F)(F)F)cc1)CC2)c1cccnc1 [Co. No. 190]	162.12	102	1.07e-06			
C[C@H]1CN(c2ccc(OC(F)(F)F)c(Cl)c2)C(=O)c2c(NC(=O)c3cccnc3)cnn21 [Co. No. 195]	181.21	105	1.58e-09			
C[C@H]1CN(c2ccc(C(F)(F)F)cc2)C(=O)c2c(NC(=O)c3cccc(S(=O)(=O)F)c3)cnn21 [Co. No. 217]	161.88				1.07e-08	110
C[C@H]1CN(c2ccc(C(F)(F)F)cc2)C(=O)c2c(NC(=O)c3ccc(S(=O)(=O)F)cc3)cnn21 [Co. No. 218]	163.64				4.37e-08	112
C[C@H]1CN(c2ccc(C(F)(F)F)cc2)C(=O)c2c(NC(=O)c3cncc(F)n3)cnn21 [Co. No. 219, 6-fluoro-N-[(7S)-7-methyl-4-oxo-5-[4-(trifluoromethyl)phenyl]-6,7-dihydropyrazolo[1,5-a]pyrazin-3-yl]pyrazine-2-carboxamide]	183.54	107	3.31e-09			
